Values of other authors in patent US20140242195A1, “AUTOMOTIVE SURFACE CONDITIONING SYSTEM” (American Covers, Inc., priority 2013, published 2014).

Details: component of the composition

Row | SMILES | Vapor Pressure (mmHg)
1 | CCOCCOCCO [CARBITOL, diethylene glycol monoethyl ether] | 0.07 mmHg
2 | OCC(O)CO [Glycerin] | 0.003 mmHg
